Read-outs that look alike come from different tables or passages of the source.

In data set [1] the test system is Escherichia coli OAR. Conditions: E. coli, ref [32], cited from earlier work.
Data set [2] concerns P. falciparum OAR. Conditions: cited from earlier work.
For data set [3], the system named is M. tuberculosis OAR. Conditions: cited from earlier work.
Data set [4] addresses T1, rSjOAR (Schistosoma japonicum, UniProt Q5DB51). Kind of data set: BIAcore assay of binding to immobilized rSjOAR. How it is done:
The binding capacities of small compounds identified by the virtual screen with rSjOAR were assessed using a BIAcore 3000 instrument (BIAcore AB, Uppsala, Sweden). The recombinant His-tag fusion protein SjOAR was immobilized onto an NTA chip. Compounds were injected at a concentration of 10 µM and a flow rate of 40 µl/min in HBS buffer (0.01 M HEPES, 0.15 M NaCl, 3.0 mM EDTA, 0.005% Tween 20, pH 7.4) containing 1‰ DMSO (Dimethyl sulfoxide). Electrical alterations on the sensor chip were monitored as a resonance signal by using the program supplied by the manufacturer. To further obtain kinetic parameters, a series of compound concentrations (0.5 µM, 1 µM, 2 µM, 5 µM and 10 µM) were measured. Data were analyzed by using the software with which the instrument was equipped.
Background: Surface plasmon resonance follows binding to a sensor surface in real time, without labels.

Data set [5] has as its system adult worms. The experiment in a line: Inhibition studies on cultured adult worms.
The target of data set [6] is T1, rSjOAR. The experiment in a line: Effect of active compounds on rSjOAR enzymatic activity. Type of data set: biochemical. How it is done: The Median inhibitory concentration (IC50) was calculated by curve fitting using SPSS18.0 statistical software with a confidence interval of 95%. All assays were carried out in triplicate and repeated three times.
The test system of data set [7] is adult worms. On the set-up: method as in PMID 19851783. Conditions: after the drug is removed; ref [30]; cited from earlier work.
Substrate in data set [8]: CC(=O)CC(=O)SCCNC(=O)CCNC(=O)[C@H](O)C(C)(C)COP(=O)(O)OP(=O)(O)OC[C@H]1O[C@@H](n2cnc3c(N)ncnc32)[C@H](O)[C@@H]1OP(=O)(O)O
The experiment in a line: rSjOAR kinetic analysis (Michaelis constants of substrates). The format is biochemical. Conditions: other: S. japonicum; pH 6.8; 37.0 °C.

Broadly, the Km is the substrate concentration at which the rate is half of its maximum. For NADPH, the Km in data set [1] (read-out: Km(app)NADPH) is 21 µM; in data set [2] (read-out: Km(app)NADPH, ref [12], [22]), 47.5 ± 4.5 µM; in data set [3] (read-out: Km(app)NADPH) it was 26 ± 3 µM.
Usually mortality stands for the share of the test organisms that died. Read a low mortality as a weak lethal effect. `O=C(C1CCCCC1)N1CC(=O)N2CCc3ccccc3C2C1` (stereo not shown) [PZQ, praziquantel]: the BIAcore response signal entry in data set [4] (compound 10 µM) is recorded as “only a small signal”. For the same molecule, the “morphological changes, optical microscopy” value in data set [5] (PZQ 10 µg/ml, 24 h (Figure 5E)) is “drastic contractions”. This molecule also showed a mortality at 1.6 µg/mL in data set [5] (Schistosoma japonicum, 72 h) of 83.3%. In addition, in data set [6], the “effect on rSjOAR enzymatic activity” value is given as “no significant inhibition”. Also, in data set [7], the “reversibility of effect against schistosomes” value is listed as “reversible”.
Broadly, the Kd is a measure of binding affinity in units of concentration. On to `O=C(NC1CCN(CCc2c[nH]c3ccccc23)CC1)c1ccccc1` [OAR8], for which the “Rmax (maximum binding capacity)” value in data set [4] (BIAcore) is 57.4. For the same molecule, the “KA (association constant)” value in data set [4] (BIAcore, five concentrations 0.5-10 µM) amounted to 82900 M⁻¹. Also, in data set [4] (BIAcore, five concentrations 0.5-10 µM, read-out: KD (dissociation constant)), the dissociation constant (Kd) was 12.1 µM. This molecule yielded a mortality in data set [5] (primary screening, 50 µg/ml, after 48 h) of 100%.
Take `CC(=O)CC(=O)SCCNC(=O)CCNC(=O)[C@H](O)C(C)(C)COP(=O)(O)OP(=O)(O)OC[C@H]1O[C@@H](n2cnc3c(N)ncnc32)[C@H](O)[C@@H]1OP(=O)(O)O` [AcAcCoA, Acetoacetyl-CoA]: the Michaelis constant (Km) is 2500 µM in data set [1] (read-out: Km(app)AcAcCoA); 510 ± 50 µM in data set [2] (read-out: Km(app)AcAcCoA, ref [12], [22]); 170 ± 20 µM in data set [3] (read-out: Km(app)AcAcCoA, M. tuberculosis, ref [17], [20]).

B1: rSjOAR (Schistosoma japonicum) (protein)
chain: MISLSKKVAIVTGASSGIGRATAILFAKLGACVALVARDKSRLQETRQACIQVSHPDVYEKHKEPFLCIEADLGDSHEVEKAYRLALNHFHQLDILVNNAGFMIQDTVETFNIDEYERLMKLNLTAAITLTNLAVPDLTTTKGSIVNVSSVCGERSFPGVMSYCISKAALDQFTKCTALDLASKGIRVNSVNPAVIVTELHKRAGMSEDDYKKFLLKSKESHALGRTGTVEEVAQAIAFLSSSASSFTTGNLLMVDGGRSIMCPR
As to B1, the Km in data set [8] is 550 ± 30 µM.

These data come from publication PMC3676400, “3-Oxoacyl-ACP Reductase from Schistosoma japonicum: Integrated In Silico-In Vitro Strategy for Discovering Antischistosomal Lead Compounds” (PLoS ONE, 2013).
